This note sets out measurements from article PMC6281421, “Anticancer activity of 2’-hydroxyflavanone towards lung cancer” (Oncotarget, 2018).

For assay [1], the target named is T1, Rlip (RLIP76) purified from H358 and H1618 cells (Homo sapiens, UniProt Q15311).
T1 construct: gene RALBP1
T1 sequence (Q15311 2-655): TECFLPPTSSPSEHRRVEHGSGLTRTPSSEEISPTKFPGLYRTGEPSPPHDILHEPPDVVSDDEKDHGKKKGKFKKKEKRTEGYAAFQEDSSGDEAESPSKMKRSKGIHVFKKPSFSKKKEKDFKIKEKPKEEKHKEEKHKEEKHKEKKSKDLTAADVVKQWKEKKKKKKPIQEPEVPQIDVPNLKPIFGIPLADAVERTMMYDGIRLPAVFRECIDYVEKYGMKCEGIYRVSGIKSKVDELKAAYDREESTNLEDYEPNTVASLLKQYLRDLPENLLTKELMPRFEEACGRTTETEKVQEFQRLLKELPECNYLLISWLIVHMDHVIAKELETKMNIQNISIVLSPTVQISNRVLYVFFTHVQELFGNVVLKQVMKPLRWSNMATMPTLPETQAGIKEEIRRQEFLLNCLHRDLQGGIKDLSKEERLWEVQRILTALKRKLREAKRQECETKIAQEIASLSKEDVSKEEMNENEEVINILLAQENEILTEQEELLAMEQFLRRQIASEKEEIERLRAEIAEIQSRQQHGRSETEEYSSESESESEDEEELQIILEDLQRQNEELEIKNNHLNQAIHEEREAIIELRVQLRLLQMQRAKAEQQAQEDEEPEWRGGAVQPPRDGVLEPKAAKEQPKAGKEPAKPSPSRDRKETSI
The assay is described as follows: […]-DOX uptake into Rlip proteoliposomes, rapid filtration. The assay is classed as biochemical. Conditions: read-out: % inhibition of DOX transport at 20 μM.

In assay [2] the target is T2, recombinant RLIP (RLIP76) (Homo sapiens, UniProt Q15311).
T2 construct: gene RALBP1; fragments incl; 38 kDa present
T2 sequence (Q15311 1-655): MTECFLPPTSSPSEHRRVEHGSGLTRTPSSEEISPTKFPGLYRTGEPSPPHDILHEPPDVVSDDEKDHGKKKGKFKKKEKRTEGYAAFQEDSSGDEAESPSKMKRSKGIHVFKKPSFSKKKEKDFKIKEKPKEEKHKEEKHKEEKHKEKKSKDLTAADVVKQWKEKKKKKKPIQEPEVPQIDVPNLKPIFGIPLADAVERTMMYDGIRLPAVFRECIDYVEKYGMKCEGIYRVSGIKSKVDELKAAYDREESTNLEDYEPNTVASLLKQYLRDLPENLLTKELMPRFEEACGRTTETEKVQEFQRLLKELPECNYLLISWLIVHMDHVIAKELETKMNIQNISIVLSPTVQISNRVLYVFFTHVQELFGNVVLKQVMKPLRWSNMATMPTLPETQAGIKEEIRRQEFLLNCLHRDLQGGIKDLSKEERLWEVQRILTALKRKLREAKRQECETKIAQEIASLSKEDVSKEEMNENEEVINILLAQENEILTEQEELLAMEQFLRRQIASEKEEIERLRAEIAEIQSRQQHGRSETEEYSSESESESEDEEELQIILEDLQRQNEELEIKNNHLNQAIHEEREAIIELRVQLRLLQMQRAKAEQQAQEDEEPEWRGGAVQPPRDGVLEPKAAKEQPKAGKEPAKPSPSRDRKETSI
Description: DNP-SG affinity resin binding and elution with free DNP-SG. Conditions: 0.2 mM DNP-SG, 10 mM ATP, 10 mM MgCl2; also stimulates the ATPase as allocrite.

Molecules are shown by their SMILES.

As to `O=C1CC(c2ccccc2O)Oc2ccccc21` (centres unmarked) [2HF, 2'-hydroxyflavanone], in assay [1], the inhibition at 20 µM was 22%.

In the case of `N[C@@H](CCC(=O)N[C@@H](CSc1ccc([N+](=O)[O-])cc1[N+](=O)[O-])C(=O)NCC(=O)O)C(=O)O` [DNP-SG, dinitrophenyl-S-glutathione], the “DNP-SG affinity resin binding and elution with free DNP-SG” value in assay [2] is “the same major Rlip protein bands were observed in the 2HF eluate as in the DNP-SG eluate”.

As usually defined, the inhibition is how much of the control response was suppressed.
